From US12018024B2, “Compounds and compositions for the treatment of cryptosporidiosis” (Novartis AG, priority 2020, dated 2024) come the findings set out here.

One experiment addresses H.s. PI(4)K (Homo sapiens, UniProt Q9UBF8). The experiment can be described thus: H.s. PI(4)K IC50. The class given is biochemical. As to conditions: read-out: (d) H.s.* PI(4)K IC50.
The target of another experiment is C. parvum PI(4)K (Cryptosporidium parvum, UniProt Q5CVD3). The experiment in a line: CpPI(4)K enzymatic assay (Transcreener ADP2 FP). The class given is biochemical. The text has this: Baculovirus expression and purification of C. parvum phosphatidylinositol 4-kinase: The full-length coding sequence of C. parvum PI(4)K (cgd8_4500, 1114 amino acids) was codon-optimized for baculovirus expression, synthesized and cloned into pFastBac-HTb (Invitrogen 10584-027) in frame with the amino-terminal polyhistidine tag using the BamHI and HindIII restriction sites. Recombinant pFastBacHTb-CpPI(4)K bacmid clones were generated by site-specific transposition in E. coli DH10Bac (Invitrogen 10361-012). The bacmid sequence was confirmed by direct DNA sequencing to confirm a lack of mutations across the whole gene. The subsequent steps for bacmid isolation, transfection and selection of the recombinant viruses were performed according to the manufacturer's protocol (Bac-to-Bac system #10359, Invitrogen).
Chain of C. parvum PI(4)K (Q5CVD3 entry or part of it): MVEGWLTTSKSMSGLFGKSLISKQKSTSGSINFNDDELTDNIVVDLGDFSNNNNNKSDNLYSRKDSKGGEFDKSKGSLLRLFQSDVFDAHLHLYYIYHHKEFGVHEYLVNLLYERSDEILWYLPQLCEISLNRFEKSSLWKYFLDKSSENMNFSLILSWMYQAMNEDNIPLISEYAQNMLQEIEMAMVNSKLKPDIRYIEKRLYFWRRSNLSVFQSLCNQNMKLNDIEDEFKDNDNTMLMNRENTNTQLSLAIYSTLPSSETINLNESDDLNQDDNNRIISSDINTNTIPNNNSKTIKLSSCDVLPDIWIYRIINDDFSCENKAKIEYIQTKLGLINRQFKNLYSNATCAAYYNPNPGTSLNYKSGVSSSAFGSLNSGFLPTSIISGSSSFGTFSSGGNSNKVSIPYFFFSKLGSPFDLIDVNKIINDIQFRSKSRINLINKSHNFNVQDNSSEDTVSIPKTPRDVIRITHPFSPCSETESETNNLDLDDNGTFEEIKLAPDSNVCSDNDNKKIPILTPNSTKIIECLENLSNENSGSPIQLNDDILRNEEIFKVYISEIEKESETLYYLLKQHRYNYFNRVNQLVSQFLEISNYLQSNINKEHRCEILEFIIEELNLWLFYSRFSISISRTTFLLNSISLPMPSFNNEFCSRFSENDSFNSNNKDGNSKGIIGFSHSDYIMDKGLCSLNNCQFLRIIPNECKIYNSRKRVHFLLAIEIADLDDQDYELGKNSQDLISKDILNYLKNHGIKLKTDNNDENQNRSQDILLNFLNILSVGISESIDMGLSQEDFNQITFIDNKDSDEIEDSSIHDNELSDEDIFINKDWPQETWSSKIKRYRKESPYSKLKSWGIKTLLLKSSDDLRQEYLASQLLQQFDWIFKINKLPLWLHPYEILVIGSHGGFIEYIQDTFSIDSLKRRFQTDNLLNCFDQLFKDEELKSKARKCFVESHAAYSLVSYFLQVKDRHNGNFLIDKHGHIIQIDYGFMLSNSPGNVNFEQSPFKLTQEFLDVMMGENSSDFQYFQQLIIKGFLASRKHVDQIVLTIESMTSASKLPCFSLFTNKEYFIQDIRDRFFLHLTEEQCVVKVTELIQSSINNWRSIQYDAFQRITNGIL
SF9 cells, cultured in […] serum-free medium, were transfected with recombinant baculovirus at 1/200 (v/v) and incubated at 27° C. for 72 h. The pellets were collected after centrifugation and re-suspended in cell lysis buffer (20 mM Tris-HCl, pH 7.5, 300 mM NaCl, 1 mM DTT, 20 mM imidazole, 0.01% Triton X-100 and 1× complete protease inhibitor cocktail without EDTA (Roche Diagnostics 04693116001)). The cell suspension was lysed by sonication and the clarified supernatant was loaded onto a 1 ml HisTrap affinity column (GE Healthcare) pre-equilibrated with buffer A (20 mM Tris-HCl, pH 7.5, 300 mM NaCl, 1 mM DTT, 20 mM Imidazole, and 1× complete protease inhibitor cocktail without EDTA). The column was washed with buffer B (buffer A containing 45 mM imidazole) and the bound protein of interest was eluted with buffer C (buffer A with 90 mM imidazole). The fractions containing CpPI(4)K were pooled, concentrated using Amicon Ultra-15 and purified by a gel-filtration column (Hi-Load 26/60 Superdex 200, GE Healthcare) equilibrated with 20 mM Tris, pH 7.5, 300 mM NaCl, 1 mM DTT and 1× protease inhibitor cocktail without EDTA. The concentrations of the purified protein (Mw 132.39 kda) was determined by using the protein molar extinction coefficient (ε280 nm=133,810 M^−1 cm^−1). Aliquots were flash frozen in liquid nitrogen and immediately stored at −80° C.
PI(4)K enzymatic Assay The CpPI(4)K enzymatic assay was performed as described earlier with a some modifications (McNamara et al., 2013). Briefly, L-α-phosphatidylinositol (Avanti Polar Lipid 840046), dissolved in 3% n-octylglucoside (Roche Diagnostics 10634425001), was used as the lipid substrate for the PI(4)K activity assay. CpPI(4)K was assayed using Transcreener ADP2 FP detection kit (BellBrook 3010) in a black, solid 384-well plate (Corning 3575). The final assay volume was 10 μl and contained 3 nM of the respective CpPI(4)K construct in 10 mM Tris, pH 7.5, 1 mM DTT, 3 μM ATP, 5 mM Mn2+, 0.05% Triton X-100 and 10 μM phosphatidylinositol/octylglucoside. The enzyme reaction was performed for 50 minutes at room temperature and was stopped by adding 10 μl of detection mix containing 1× stop buffer (50 mM HEPES, pH7.5, 400 mM NaCl, 20 mM EDTA, and 0.02% Brij-35), 2 nM AMP Alexa Fluor 633 tracer, and 20 μg ml^−1 ADP antibody. Fluorescence polarization measurements were performed on the Infinite M1000 plate reader (Tecan) with λex=635 nm and λem=680 nm (20-nm bandwidth). IC50 values were calculated using Graphpad Prism software.

The test system of another experiment is Cryptosporidium hominis. The experiment can be described thus: Cytopathic effect (CPE) based assay, C. hominis-infected HCT-8 cells. Type of experiment: cell-based. The procedure:
(§1) Human ileocecal colorectal adenocarcinoma cells (HCT-8 [HRT-18] ATCC, CCL-34) were maintained in T-175 flasks (Corning, 431080) in complete growth medium (RPMI-1640 medium (Gibco, 11875) supplemented with 10% heat-inactivated horse serum (Gibco, 26050), 1× MEM non-essential amino acids (Gibco, 11140), 10 mM HEPES (Gibco, 15630), 100 units/mL penicillin, and 100 units/mL streptomycin) at 37° C. and 5% CO2 in a humidified incubator. Cultures were passaged twice weekly using 10 mL of 1× Phosphate-Buffered Saline (PBS) without Ca^2+ and Mg^2+ (Gibco, 20012) for washing and 3-5 mL per T-175 flask of TrypLE Express Enzyme (Gibco, 12604) for dissociation of adherent cells.
Cryptosporidium hominis oocysts were purchased from the Tufts University Cummings School of Veterinary Medicine (courtesy of Dr. Saul Tzipori). C. hominis oocysts were purified from infected gnotobiotic piglet feces and stored in PBS solution containing 0.01% Tween-20, 100 units/mL penicillin and 100 units/mL gentamicin. C. parvum and C. hominis oocysts less than three months old from the date of shedding were used in infection experiments.
(§2) Excystaion and infection: Excystation and infection protocols were developed following established methods with some modifications (Gut & Nelson, 1999, Upton et al., 1995, Bessoff et al., 2013). Briefly, oocysts were primed in 1 mL of 10 mM hydrochloric acid in 1× Hank's Balanced Salt Solution (HBSS) (Gibco, 14025) for 10 minutes with agitation at 1000 rpm, 37° C. on an Eppendorf thermomixer, then washed twice with 1 mL of room temperature non-acidic 1× HBSS by centrifugation at 13,000 rpm for 3 minutes at 25° C. Primed oocysts were further excysted at a concentration of 1×10^6 oocysts/μL in parasite infection medium consisting of a pre-warmed and pre-gassed 1:1 formulation of Leibovitz's L-15 medium (Gibco, 11415) and UltraCULTURE medium (Lonza, 12-725F) supplemented with 2 mM sodium taurocholate (Sigma, 86339-1), 10% heat-inactivated horse serum, and 200 μM L-ascorbic acid (Sigma, 95210) at 25° C. for 10 minutes. HCT-8 monolayer cells were infected with excysted cryptosporidium at a specified multiplicity of infection (MOI). All dilutions for subsequent assays were performed in parasite infection medium without sodium taurocholate. Pre-excysted oocysts were enumerated microscopically using a C-Chip disposable hemocytometer (NanoEnTek, DHC-N01).
Compound and assay plate preparation: Compound powders were dissolved in neat DMSO (Fisher, D4121) to 10 mM and stored at 4° C. prior to dilution into source plates. Dilutions were carried out using a Microlab STAR liquid handler (Hamilton) to obtain compound source plates containing the ten-point or eight-point three fold dilutions starting from 10 mM in duplicates. […]
For orientation: Cytopathic effects are the visible damage that an infection or toxin causes in cultured cells.

For a further experiment, the system named is Cryptosporidium parvum. The experiment can be described thus: Cytopathic effect (CPE) based assay, C. parvum-infected HCT-8 cells. Type of experiment: cell-based. As to conditions: HCT-8, 48 h, read-out: (b) C.p.* CPE EC50 (μM). The procedure: as §1
Cryptosporidium parvum oocysts purchased from the Sterling Laboratory, University of Arizona (Iowa isolate) were purified from infected calf feces using discontinuous sucrose and cesium chloride centrifugation gradients and stored in PBS solution containing 0.01% Tween 20, 100 units/mL penicillin and 100 units/mL gentamicin.
as §2
Compound and assay plate preparation: Compound powders were dissolved in neat DMSO (Fisher, D4121) to 10 mM and stored at 4° C. prior to dilution into source plates. Dilutions were carried out using a Microlab STAR liquid handler (Hamilton) to obtain compound source plates containing the ten-point or eight-point three fold dilutions starting from 10 mM in duplicates. Source plates were stored at 4° C. prior to spotting into assay plates. Before administration, all compound source plates were equilibrated to room temperature. A specified volume of compounds from source plate were spotted to assay plate using an Echo Acoustic liquid handler (LABCYTE, 550) so that the final DMSO concentration was less than 0.5%. Each assay plate a specified number of DMSO-treated negative control wells and a well-studied potent active compound at 100 nM as positive control. As a quality control, all positive and negative-control wells were used to calculate a Z′-value and signal to noise ratio (S:N) for each plate.
Cryptosporidium spp are obligate-intracellular parasites that infect intestinal epithelial cells and the host cell is killed upon parasite egress. […] The loss of epithelial cells is due to both rapid parasite invasion/multiplication/egress and also pro-inflammatory immune response (Adams et al., 1994, Griffiths et al., 1994). We have observed a consistent cytopathic effect (CPE) in HCT-8 cells with C. spp infection the loss of viability of the host cells using CellTiter-Glo reagent.
Confluent HCT-8 cells in T-175 flasks were directly infected with excysted oocysts at an MOI (host to parasite) of 1:2 for C. parvum and 1:4 for C. hominis. […]

Setting [1] is: HCT-8 host cells, 48 hours treatment, CellTiter-Glo, read-out: (c) C.h.* CPE EC50.

Read-outs that look alike come from different tables or passages of the source. Where only a bound is given, the exact number is not on record here.

Chain of H.s. PI(4)K (Q9UBF8 2-816 limits assumed): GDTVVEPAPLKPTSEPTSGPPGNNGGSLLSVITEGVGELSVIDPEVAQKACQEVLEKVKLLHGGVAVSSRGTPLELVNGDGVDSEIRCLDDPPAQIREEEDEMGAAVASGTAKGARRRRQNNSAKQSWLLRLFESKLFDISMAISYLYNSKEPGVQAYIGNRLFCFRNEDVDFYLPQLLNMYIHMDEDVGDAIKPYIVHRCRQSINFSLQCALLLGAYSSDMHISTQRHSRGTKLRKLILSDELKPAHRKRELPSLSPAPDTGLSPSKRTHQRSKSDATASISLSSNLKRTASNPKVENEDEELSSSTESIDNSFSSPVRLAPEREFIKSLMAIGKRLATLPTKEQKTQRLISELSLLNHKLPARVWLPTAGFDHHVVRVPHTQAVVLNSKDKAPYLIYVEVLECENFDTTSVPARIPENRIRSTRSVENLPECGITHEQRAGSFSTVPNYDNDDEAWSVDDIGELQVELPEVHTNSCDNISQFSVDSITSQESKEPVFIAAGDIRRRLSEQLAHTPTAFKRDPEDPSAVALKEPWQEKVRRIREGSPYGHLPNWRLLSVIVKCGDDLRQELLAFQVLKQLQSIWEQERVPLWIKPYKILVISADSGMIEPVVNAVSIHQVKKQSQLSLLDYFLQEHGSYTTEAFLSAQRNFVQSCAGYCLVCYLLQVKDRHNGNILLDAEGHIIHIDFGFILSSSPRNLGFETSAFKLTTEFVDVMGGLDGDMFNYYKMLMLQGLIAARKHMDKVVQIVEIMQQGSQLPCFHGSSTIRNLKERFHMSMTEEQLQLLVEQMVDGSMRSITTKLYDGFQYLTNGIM

Usually IC50 stands for the point on the concentration scale where inhibition reaches its midpoint. By EC50 is commonly meant the concentration that produces a half-maximal response. Consider `COC(=O)c1cc(Cl)ccc1N(C)C(=O)c1ccn2ncc(-c3ccc(C(N)=O)cc3)c2c1` [Example 4.1, Methyl 2-(3-(4-carbamoylphenyl)-N-methylpyrazolo[1,5-a]pyridine-5-carboxamido)-5-chlorobenzoate], for which the concentration for half-maximal inhibition (IC50) was 100 to 1000 nM at H.s. PI(4)K and under 100 nM against C. parvum PI(4)K. In addition, the concentration for a half-maximal effect (EC50) in the experiment on Cryptosporidium hominis (setting [1]) and in the experiment on Cryptosporidium parvum was under 0.1 µM in each case.

`CNC(=O)c1ccc(-c2cnn3ccc(C(=O)N(C)c4ccc(Cl)c(C(=O)OC)c4)cc23)cc1` [Example 1.16, Methyl 2-chloro-5-(N-methyl-3-(4-(methylcarbamoyl)phenyl)pyrazolo[1,5-a]pyridine-5-carboxamido)benzoate]: the values for the half-inhibitory concentration (IC50) at H.s. PI(4)K and at C. parvum PI(4)K were 100 to 1000 nM and under 100 nM, respectively. The EC50 in the experiment on Cryptosporidium hominis (HCT-8, 48 h, read-out: (c) C.h.* CPE EC50 (μM)) is under 0.1 µM; with Cryptosporidium parvum, under 0.1 µM.

In the case of `COC(=O)c1cc(N(C)C(=O)c2ccn3ncc(-c4ccc(C(N)=O)cc4)c3c2)ccc1Cl` [Example 1.01, Methyl 5-(3-(4-carbamoylphenyl)-N-methylpyrazolo[1,5-a]pyridine-5-carboxamido)-2-chlorobenzoate], the IC50 on H.s. PI(4)K was 100 to 1000 nM; against C. parvum PI(4)K it was under 100 nM. Besides, the concentration for a half-maximal effect (EC50) with Cryptosporidium hominis (setting [1]) and with Cryptosporidium parvum was under 0.1 µM throughout.

For `CNC(=O)c1ccc(-c2cnn3cnc(C(=O)N(C)c4ccc(Cl)c(C(=O)OC)c4)cc23)cc1` [Example 3.1, Methyl 2-chloro-5-(N-methyl-3-(4-(methylcarbamoyl)phenyl)pyrazolo[1,5-c]pyrimidine-5-carboxamido)benzoate], the values for the IC50 on H.s. PI(4)K and against C. parvum PI(4)K were over 1000 nM and under 100 nM, respectively. The EC50 with Cryptosporidium hominis (setting [1]) and with Cryptosporidium parvum was 0.1 to 1 µM in each case.
